# According to US11364231B2, “Methods of treating radiation induced gastrointestinal syndrome (RIGS) and related disease states using YEL002/BCN057” (priority 2017, dated 2022):
# “And” between values parts separate entries of the source, which are not always exact repeats. Equal entries are not always repeated. “Also recorded” adds a separate entry of the source.
# Tests used:
# [1] = test system: C57B16 mice exposed to AIR; assay: Survival after lethal abdominal irradiation (AIR), RIGS model; details: for survival: BCN057 s.c. 150 mg/kg from 24 hrs post AIR, single dose/day up to day 8, n=25/group, vehicle/untreated died within 15 days
# Protocol: FIG. 1A. […] A 3 cm area of the mice containing the GI was irradiated (irradiation field), thus shielding the upper thorax, head and neck as well as lower and upper extremities, protecting a significant portion of the bone marrow, thus inducing predominantly RIGS. Mice exposed to AIR were treated with BCN057 (s.c.) (150 mg/kg of body weight) at 24 hrs post irradiation and continued up to day 8 (single dose/day).
# To examine the radio-mitigating role of BCN057 against RIGS, C57B16 mice were exposed to graded doses of abdominal irradiation (AIR) (14-15Gy) after shielding the thorax, head and neck, and extremities, thus protecting the bone marrow.
# Male C57B16/6J (Jackson laboratories) mice (five to six weeks old) were maintained ad libitum and all studies were performed under the guidelines and protocols of the Institutional Animal Care and Use Committee of the University of Kansas medical center.
# AIR was performed on anaesthetized mice (with a continuous flow 1.5 ml min-1 of 1.5% isoflurane in pure oxygen) using the small animal radiation research platform (SARRP, XStrahl, Surrey, UK). A 2 cm area of the mice containing the GI was irradiated (FIG. 2), thus shielding the upper thorax, head and neck as well as lower and upper extremities, protecting a significant portion of the bone marrow, thus inducing predominantly RIGS. A radiation dose of 14-15 Gy was delivered to the midline of the GI, ensuring homogeneous delivery by performing half of the total irradiation from the anterior-posterior direction and the second half from the posterior-anterior direction. The total irradiation time to deliver the intended dose was calculated with respect to dose rate, radiation field size and fractional depth dose to ensure accurate radiation dosimetry.
# [2] = test system: intestinal epithelial integrity; assay: FITC-dextran permeability assay; assay type: in vivo, mice
# Protocol: Since dextran is unable to cross the GI epithelia unless it is compromised, dextran in the blood is a good indicator of epithelial damage. Blood FITC-dextran levels were measured at 4 h after gavage.
# At day 5 post mice exposed to ABI and/or treated with BCN057 were gavaged with 0.6 mg g-1 body weight of a FITC-dextran solution ([…] size, Sigma). In all, four hrs. after gavage mice were killed and serum was obtained with cardiac puncture. Samples were measured in a 96-well plate using a Flexstation ii 384 multiwell fluorometer (Molecular Devices). A standard curve was constructed using mouse serum having increasing amounts of FITC-dextran to determine the serum levels of FITC-dextran in different treatment groups.
# [3] = test system: HEK293 cells having TCF/LEF luciferase reporter construct; assay: TCF/LEF (Topflash) reporter assay; assay type: cell-based, human; details: graded doses of BCN057 vs vehicle control, 24 hr
# Protocol: To determine the canonical WNT activity of BCN057 HEK293 cells (Signosis, Santa Clara, Calif.) having TCF/LEF luciferase reporter construct were treated with BCN057 or vehicle control or PBS. LiCl (10 mM) treatment was used as positive control for luciferase activity. Luciferase activity was determined 24 hr after using Dual-Luciferase Reporter Assay System (Promega) as per manufacturer's protocol. HEK293 cells having FOPFLASH construct (mutated TCF/LEF-binding site) were used as negative control. HEK293 (human embryonic kidney) cell line was routinely characterized in the lab based on morphology and gene-expression patterns. Cells were confirmed to be free of mycoplasma contamination.
# β-catenin target genes = assay: Real-time PCR of β-catenin target genes in crypt cells; assay type: in vivo; details: crypt epithelial cells, irradiated mice treated with BCN057 vs irradiated control
# Protocol: To compare the mRNA levels of β-catenin target genes in intestinal crypt cells from irradiated mice treated with BCN057 or PBS real-time PCR were performed using primer pairs for the genes Ephb2, Ascl, Olf, Tcf, Lef, Sox9 and Axin. RNA was isolated from crypt cells using RNeasy mini kit from Qiagen. Preparation of cDNA followed by real-time PCR array was performed according to manufacturer protocol (Qiagen).
# [4] = test system: human malignant colonic organoids; assay: Human colon tumor derived organoids with or without irradiation; assay type: cell-based
# Source text: FIG. 16. […] Organoids derived from surgical specimen of colon tumor were exposed to irradiation (8Gy) and then treated with BCN057. Note loss of budding crypt like structure in Irradiated organoids treated with BCN057.
# FIG. 17. […] Budding crypt to total crypt ratio reduced in a dose dependent manner following irradiation (2-8 Gy).
# BCN057 was first examined in the National Cancer Institute (NCI) 60 cancer cell line platform. Several of these cell lines are known to be positive for dysregulation of the Wnt/b-catenin signaling pathway. […] Next we examined the effect of BCN057 in human colonic tumor derived organoids exposed to irradiation.
# MC38 colon tumor = MC38 colon tumor in the flank with AIR; assay type: in vivo, mice
# Source text: FIG. 18. […] I) Schematic diagram of BCN057 treatment in C57B16 mice having MC38 colon tumor in the flank. Mice were exposed to AIR (15Gy) and then treated with BCN057 at 24 hrs post exposure. Ii) Representative image of C57B16 mice having MC38 colon tumor in the flank. Note reduction in tumor size in irradiated or un-irradiated tumor treated with BCN057 at day 20 post AIR. Mice exposed to AIR without BCN057 treatment are not part of this image as they died within day 15 post AIR.
# Subcutaneous tumors were developed by injecting MC38 colon cancer cell in the flank. Mice with palpable, subcutaneous tumor were treated with AIR (16Gy) followed by eight doses of BCN057. AIR reduced the tumor growth but invariably produced 100% mortality of animals with a median survival time of 14+2 days.
# Mice were injected subcutaneously with 1×105 MC38 (colon carcinoma cell line) cells on the flank, respectively. About 10 days later, the tumor became palpable (3-5 mm in diameter), whereupon abdominal irradiation 16 Gy was delivered. Mice were divided into 4 groups (n=10/group) receiving no treatment, AIR, BCN057 and BCN057 plus AIR. Animals received BCN057 eight times starting 24 hrs after AIR. Tumor measurements were performed thrice weekly using Vernier calipers along with simultaneous physical assessment of signs of systemic toxicity (malaise and diarrhea).
# [5] = test system: irradiated intestinal epithelium (jejunum); assay: Jejunum histology and crypt proliferation after AIR; assay type: in vivo
compound,measurement,setting,value
"COc1ccc2cc(-c3nc4ccc(C)cn4c3NCc3ccco3)c(=O)[nH]c2c1 [BCN057, 3-(3((furan-2-ylmethyl)ammo)-6-methylimidazo[1,2-a]pyridine-2-yl)-6-methoxyquinolin-2(1H)-one]",duration of survival post AIR,"[1]; 14-15 Gy AIR, BCN057 at 24 hrs post AIR",> 30 days and > 60 days
same,survival,[1]; 14Gy AIR,80%
same,survival,[1]; 15Gy AIR,60%
same,symptoms / clinical conditions in surviving treated mice,"[1]; after AIR/PBI, observed up to day 30-60 post exposure",without showing any symptoms of RIGS; also recorded: did not develop any clinical conditions; also recorded: without any symptom of gastroenteritis or any other health complications
same,toxicity to normal mice,[1]; normal (un-irradiated) mice,do not confer any toxicity
same,serum FITC-dextran level,"[2]; irradiated (AIR) mice treated with BCN057 vs irradiated untreated control, 4 h after gavage",significantly reduced; also recorded: lower serum dextran level
same,serum dextran level,[2]; unirradiated BCN057 treated mice vs irradiated control,lower serum dextran level
same,Luciferase activity (WNT activity),[3],significant increase; also recorded: higher Luciferase activity; also recorded: strong WNT activity
same,mRNA level of β-catenin target genes,β-catenin target genes,several fold increases
same,rescue of malignant organoids from radiation toxicity,"[4]; 8Gy (2-8 Gy in FIG. 17), BCN057 10 uM at 1 hr post radiation",did not recue organoids from radiation toxicity; also recorded: did not rescue; also recorded: could not reduce the radiation toxicity
same,growth and proliferation of malignant organoid,[4]; un-irradiated organoids treated with BCN057,inhibitory effect
same,mice surviving beyond 30 days,"MC38 colon tumor; AIR (16Gy) followed by eight doses of BCN057, AIR alone 100% mortality, n=10",75%
same,tumor growth,MC38 colon tumor; AIR + BCN057 vs un-irradiated untreated control,significant tumor growth retardation; also recorded: significant reduction of tumor growth
same,tumor growth,MC38 colon tumor; BCN057 in un-irradiated mice vs un-irradiated untreated control,reduces the tumor growth
same,survival time,MC38 colon tumor; BCN057 post AIR vs AIR alone,significant improvement in survival time
same,percent of BrdU+ve crypt epithelial cells,"[5]; BCN057 treated vs untreated irradiated control, p<0.0005",significantly higher
same,crypt villus morphology and BRDU incorporation,[5]; non-irradiated mice treated with BCN057,did not induce any changes
